The nature of data set [1]: LogD (shake flask method). Format: physicochemical. An excerpt:
LogD can be measured using the generic shake flask method as described in Lars-Goran Danielsson, Yu Hui Zhang, Trends in Analytical Chemistry, 1996, 15(4), 188-196, and also by the method described in B. Law and D. Temesi, J. Chromatogr. B 748 (2000), 21-30.

Data set [2] can be described thus: Solubility in 0.1 M phosphate buffer pH 7.4. Conditions: pH 7.4, 24 h. Format: physicochemical. As to the method: Solubility values are determined by agitation of compounds in 0.1 M phosphate buffer at pH 7.4 for 24 h at 25° C. The supernatant is separated from undissolved material by double centrifugation and subsequently analyzed and quantified against a standard of known concentration in DMSO using generic HPLC-UV methodology coupled with mass spectral peak identification (J. Med. Chem., 2006, 49(23), 6672-6682).

Data set [3] can be described thus: Protein binding by equilibrium dialysis. It is filed as in vitro ADME. Conditions: rat, equilibrium dialysis against 10% plasma, 37° C., read-out: Protein binding, % free. The protocol: Protein binding is determined by equilibrium dialysis. A 20 iM concentration of compound is dialyzed against 10% plasma at a temperature of 37° C. for 18 h. The resulting samples are analyzed using generic HPLC-UV methodology coupled with mass spectral peak identification. The reported K1 value is the first apparent association constant [proteináligand]/([protein][ligand]), all concentrations being measured in moles/liter (J. Med. Chem., 2006, 49(23), 6672-6682).
Protein binding can be measured in a high-throughput screen by equilibrium dialysis combined with liquid chromatography and mass spectrometry (Wan, H. and Rehngren, M., J. Chromatogr. A 2006, 1102, 125-134).
(In general: In equilibrium dialysis only unbound substance equilibrates across the membrane.)

The results in this text go back to US20080269266A1, “NOVEL COMPOUNDS 747” (ASTRAZENECA AB, priority 2007, published 2008).

The structures appear in SMILES notation. Converted amounts (≈) assume the structure as drawn.

As to `CCc1cc(Nc2cc(OC)nc(N3CCC[C@H]3c3cc(-c4ncccn4)no3)n2)n[nH]1` [Comparative Example A, (S)-6-Methoxy-2-{2-[3-(pyrimid-2-yl)isoxazol-5-yl]pyrrolidin-1-yl}-4-(5-ethyl-1H-pyrazol-3-ylamino)pyrimidine], in data set [1], the logD was 3.43. This molecule returned a solubility at 24 h in data set [2] (phosphate buffer, 25 °C, pH 7.4, aqueous buffer, thermodynamic from solid) of 9.24 µM (≈ 4.01 µg/mL). The fraction unbound at 18 h, 20 µM in data set [3] was found to be 0.0205.
`COc1cc(Nc2cc(C)n[nH]2)nc(N2CCC[C@H]2c2cc(-c3ncccn3)no2)n1` [Example 1, (S)-6-Methoxy-2-{2-[3-(pyrimid-2-yl)isoxazol-5-yl]pyrrolidin-1-yl}-4-(5-methyl-1H-pyrazol-3-ylamino)pyrimidine] yielded a pH-dependent lipophilicity (logD) in data set [1] of 3.12. Moreover, the solubility at 24 h in data set [2] (25° C.) amounted to 160 µM (≈ 67.1 µg/mL). Moreover, the fraction unbound at 18 h, 20 µM in data set [3] turned out to be 0.0523.

The term logD denotes lipophilicity at a set pH, counting ionised and neutral species. A lower logD goes with a more hydrophilic compound. One may read the solubility as the concentration that dissolves in the medium under given conditions. A lower solubility goes with a poorly soluble substance.
